Experimental data reported in patent US5086045A, “Antitumor antibiotic” (Bristol-Myers Squibb Company, priority 1990, dated 1992).
≈ marks a conversion by molar mass, not a printed value. Entries after “also recorded” stand apart in the source; their conditions may differ.

How the values were obtained:
[1] = tested on: E. faecalis A25708; assay: Antibacterial activity (MIC), serial two-fold agar dilution; format: cell-based; settings: Enterococcus faecalis
Procedure: (§1) Antimicrobial activity of BMY-41339 was determined for a variety of bacteria by the serial two-fold agar dilution method.

[2] = tested on: B. subtilis A9506-A; assay: as above; format: cell-based; settings: Bacillus subtilis, A9506A
Procedure: as §1

[3] = tested on: E. coli A20697; assay: as above; format: cell-based; settings: Escherichia coli
Procedure: as §1

[4] = tested on: K. pneumoniae A9664; assay: as above; format: cell-based; settings: Klebsiella pneumoniae
Procedure: as §1

[5] = tested on: E. faecalis A25707; assay: as above; format: cell-based; settings: Enterococcus faecalis
Procedure: as §1

[6] = tested on: P. aeruginosa A20235; assay: as above; format: cell-based; settings: Pseudomonas aeruginosa
Procedure: as §1

[7] = tested on: P. vulgaris A21559; assay: as above; format: cell-based; settings: Proteus vulgaris
Procedure: as §1

[8] = tested on: E. coli A9751; assay: as above; format: cell-based; settings: Escherichia coli
Procedure: as §1

[9] = tested on: E. coli A15119; assay: as above; format: cell-based; settings: Escherichia coli
Procedure: as §1

[10] = tested on: S. aureus A20698; assay: as above; format: cell-based; settings: Staphylococcus aureus
Procedure: as §1

[11] = tested on: S. aureus A24407; assay: as above; format: cell-based; settings: Staphylococcus aureus
Procedure: as §1

[12] = tested on: S. aureus A9537; assay: as above; format: cell-based; settings: Staphylococcus aureus
Procedure: as §1

[13] = tested on: P. aeruginosa A9843; assay: as above; format: cell-based; settings: Pseudomonas aeruginosa
Procedure: as §1

[14] = tested on: K. pneumoniae A20468; assay: as above; format: cell-based; settings: Klebsiella pneumoniae
Procedure: as §1

[15] = tested on: E. faecalis A20688; assay: as above; format: cell-based; settings: Enterococcus faecalis
Procedure: as §1

[16] = tested on: P. aeruginosa A21508; assay: as above; format: cell-based; settings: Pseudomonas aeruginosa
Procedure: as §1

[17] = tested on: a variety of bacteria; assay: Antimicrobial activity, serial two-fold agar dilution, overall; format: cell-based
Procedure: as §1

[18] = tested on: P388 leukemia; assay: In vivo antitumor activity, P388 leukemia implanted ip, drug ip; parameters: species or system mouse
Procedure: The in vivo antitumor activity of BMY-41339 was determined in the standard P388 mouse leukemia model. A summary of the experiments performed using BMY-41339 is provided below.
DBA/2 and (Balb/c × DBA/2)F1 (CDF1) hybrid mice were purchased from Charles River Breeding Co. (Wilmington, MA). They were provided food and water ad libitum.
The P388 murine ascites leukemia was maintained by weekly in vivo passage in DBA/2 mice.
Esperamicin A1 and BMY-41339 were dissolved in ethanol. Further dilutions were made with 0.9% NaCl (saline) until the ethanol concentration (v/v) was 10%. All administrations were made, therefore, in a 10% ethanol in saline vehicle. For ip injections, the concentration of compound was adjusted according to the average initial body weight of each group of mice to be injected such that the desired dose would be contained in a 0.5 ml injection volume. The same procedure was used for iv compound administration except the injection volume was 0.2 ml.
Antitumor experiments were initiated by implanting […] P388 leukemia cells either ip or iv into CDF1 mice. BMY-41339 and esperamicin A1 (included as a positive reference compound), were injected either ip in mice implanted ip with P388, or iv in mice implanted iv with P388 on Day 2 post-implant only Eight different dose levels of BMY-41339, at two-fold increments, were evaluated in each of the two experiments performed.
A % T/C value of ≥ 125 was considered indicative of activity in these models.

[19] = Exp. 8102, ip, 0.025 mg/kg/dose
[20] = Exp. 8109, ip, 0.025 mg/kg/dose

C=C(OC)C(=O)Nc1cc(OC)c(OC)cc1C(=O)OC1CC(OC2C(=O)C(NC(=O)OC)=C3C(=CCSSSSC)C2(O)C#CC=CC#CC3OC2OC(C)C(NOC3CC(O)C(SC)C(C)O3)C(O)C2OC2CC(OC)C(NC(C)C)CO2)OC(C)C1O (stereo not drawn) [BMY-41339]
MIC [1]: 0.002 µg/mL (≈ 0.00147 µM) | MIC [2]: 0.001 µg/mL (≈ 0.000737 µM) | MIC [3]: 0.25 µg/mL (≈ 0.184 µM) | MIC [4]: 1 µg/mL (≈ 0.737 µM) | MIC [5]: 0.002 µg/mL (≈ 0.00147 µM) | MIC [6]: 0.13 µg/mL (≈ 0.0958 µM) | MIC [7]: 0.13 µg/mL (≈ 0.0958 µM) | MIC [8]: 0.016 µg/mL (≈ 0.0118 µM) | MIC [9]: 0.25 µg/mL (≈ 0.184 µM) | MIC [10]: 0.001 µg/mL (≈ 0.000737 µM) | MIC [11]: 0.001 µg/mL (≈ 0.000737 µM) | MIC [12]: 0.001 µg/mL (≈ 0.000737 µM) | MIC [13]: 0.25 µg/mL (≈ 0.184 µM) | MIC [14]: 1 µg/mL (≈ 0.737 µM) | MIC [15]: 0.002 µg/mL (≈ 0.00147 µM) | MIC [16]: 0.25 µg/mL (≈ 0.184 µM) | antibacterial activity spectrum [17]: broad spectrum of antibacterial activity; also recorded: antimicrobial activity against a broad spectrum of bacteria | T/C ([18]; Exp. 8102, ip, 1.6 μg/kg): 145% | T/C ([18]; Exp. 8102, ip, 3.2 μg/kg (highest dose tested)): 140% | % T/C [18, 19]: 110% | Avg. wt. change on day 6 [18, 19]: 0.8 grams | Survivors on Day 5 [18, 19]: 6/6 | % T/C ([18]; Exp. 8102, ip, 0.05 mg/kg/dose): 110% | Avg. wt. change on day 6 ([18]; Exp. 8102, ip, 0.05 mg/kg/dose): 1.3 grams | Survivors on Day 5 ([18]; Exp. 8102, ip, 0.05 mg/kg/dose): 6/6 | % T/C ([18]; Exp. 8102, ip, 0.1 mg/kg/dose): 120% | Avg. wt. change on day 6 ([18]; Exp. 8102, ip, 0.1 mg/kg/dose): 0.7 grams | Survivors on Day 5 ([18]; Exp. 8102, ip, 0.1 mg/kg/dose): 6/6 | % T/C ([18]; Exp. 8102, ip, 0.2 mg/kg/dose): 140% | Avg. wt. change on day 6 ([18]; Exp. 8102, ip, 0.2 mg/kg/dose): 0.6 grams | Survivors on Day 5 ([18]; Exp. 8102, ip, 0.2 mg/kg/dose): 6/6 | % T/C ([18]; Exp. 8102, ip, 0.4 mg/kg/dose): 135% | Avg. wt. change on day 6 ([18]; Exp. 8102, ip, 0.4 mg/kg/dose): 0.6 grams | Survivors on Day 5 ([18]; Exp. 8102, ip, 0.4 mg/kg/dose): 6/6 | % T/C ([18]; Exp. 8102, ip, 0.8 mg/kg/dose): 140% | Avg. wt. change on day 6 ([18]; Exp. 8102, ip, 0.8 mg/kg/dose): 0.4 grams | Survivors on Day 5 ([18]; Exp. 8102, ip, 0.8 mg/kg/dose): 6/6 | % T/C ([18]; Exp. 8102, ip, 1.6 mg/kg/dose): 145% | Avg. wt. change on day 6 ([18]; Exp. 8102, ip, 1.6 mg/kg/dose): -0.1 grams | Survivors on Day 5 ([18]; Exp. 8102, ip, 1.6 mg/kg/dose): 6/6 | % T/C ([18]; Exp. 8102, ip, 3.2 mg/kg/dose): 140% | Avg. wt. change on day 6 ([18]; Exp. 8102, ip, 3.2 mg/kg/dose): 0.7 grams | Survivors on Day 5 ([18]; Exp. 8102, ip, 3.2 mg/kg/dose): 6/6 | % T/C ([18]; Exp. 8102, ip, single injections above 0.1 μg/kg, Day 2 only): ≥ 135% | overt drug-associated toxicity (e.g. excessive body weight loss, early deaths) ([18]; Exp. 8102, ip, up to 3.2 μg/kg): no obvious sign of overt drug-associated toxicity | % T/C [18, 20]: 110% | Avg. wt. change on day 6 [18, 20]: 0.8 grams | Survivors on Day 5 [18, 20]: 6/6 | T/C ([18]; Exp. 8109, ip, 32 μg/kg (highest dose tested)): 171% | % T/C ([18]; Exp. 8109, ip, 0.05 mg/kg/dose): 110% | Avg. wt. change on day 6 ([18]; Exp. 8109, ip, 0.05 mg/kg/dose): 1.3 grams | Survivors on Day 5 ([18]; Exp. 8109, ip, 0.05 mg/kg/dose): 6/6 | % T/C ([18]; Exp. 8109, ip, 0.1 mg/kg/dose): 120% | Avg. wt. change on day 6 ([18]; Exp. 8109, ip, 0.1 mg/kg/dose): 0.7 grams | Survivors on Day 5 ([18]; Exp. 8109, ip, 0.1 mg/kg/dose): 6/6 | % T/C ([18]; Exp. 8109, ip, 0.2 mg/kg/dose): 140% | Avg. wt. change on day 6 ([18]; Exp. 8109, ip, 0.2 mg/kg/dose): 0.6 grams | Survivors on Day 5 ([18]; Exp. 8109, ip, 0.2 mg/kg/dose): 6/6 | % T/C ([18]; Exp. 8109, ip, 0.4 mg/kg/dose): 135% | Avg. wt. change on day 6 ([18]; Exp. 8109, ip, 0.4 mg/kg/dose): 0.6 grams | Survivors on Day 5 ([18]; Exp. 8109, ip, 0.4 mg/kg/dose): 6/6 | % T/C ([18]; Exp. 8109, ip, 0.8 mg/kg/dose): 140% | Avg. wt. change on day 6 ([18]; Exp. 8109, ip, 0.8 mg/kg/dose): 0.4 grams
